Data on four compounds can be found in patent publication US7205410B2, “4-(aminomethyl)-piperidine benzamides for treating gastrointestinal disorders” (Janssen Pharmaceutica, N.V., priority 1998, dated 2007).

The target in one data set is T1, 5HT4 (Rattus norvegicus, UniProt Q62758).
T1 construct: 5HT4 Antagonism in Rat Oesophageal Tunica Muscularis Mucosae; from tissue; host or cells: rat oesophageal tunica muscularis mucosae
Kind of data set: 5HT4 antagonism in rat oesophageal tunica muscularis mucosae. The data set is classed as cell-based. Conditions: 5HT4 antagonistic data, isolated rat oesophageal tunica muscularis mucosae, method of Baxter et al. The method, then: 5HT4 Antagonism in Rat Oesophageal Tunica Muscularis Mucosae
The 5HT4 antagonistic potence of the present compounds was measured as described in Baxter G. S. et. al, Naunyn-Schmiedeberg's Arch. Pharmacol., 343, 439-446 ([…]).
The pA2 value is calculated as follows: [formula]

T1 sequence (Q62758 whole entry): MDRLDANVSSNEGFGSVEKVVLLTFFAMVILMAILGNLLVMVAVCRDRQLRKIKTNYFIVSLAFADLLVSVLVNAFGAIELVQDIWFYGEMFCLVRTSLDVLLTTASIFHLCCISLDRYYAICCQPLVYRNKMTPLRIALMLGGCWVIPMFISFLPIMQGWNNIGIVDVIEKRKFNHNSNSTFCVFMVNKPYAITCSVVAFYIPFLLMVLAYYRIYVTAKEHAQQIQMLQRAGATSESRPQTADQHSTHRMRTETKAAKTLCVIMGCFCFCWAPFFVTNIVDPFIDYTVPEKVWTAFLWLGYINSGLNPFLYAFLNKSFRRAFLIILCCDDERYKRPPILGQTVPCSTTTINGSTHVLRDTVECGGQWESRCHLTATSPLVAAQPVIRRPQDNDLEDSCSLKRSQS

For `CCCCN1CC[C@@H](CNC(=O)c2cc(Cl)cc3c2OCCO3)[C@H](O)C1` (racemic) [Compound 64, (±)-(trans)-N-[(1-butyl-3-hydroxy-4-piperidinyl)methyl]-7-chloro-2,3-dihydro-1,4-benzodioxin-5-carboxamide], the melting point – broadly, the temperature, or range, at which the solid turns liquid – came to 112 °C. The Kb on 5HT4 (read-out: pA2 (converted)) was 100 pM. As to `O=C(NCC1CCN(CCOCCO)CC1O)c1cc(Cl)cc2c1OCCCCO2` (centres unmarked) [Compound 190], the pA2 (as a rule, the negative logarithm of the molar antagonist concentration that doubles the agonist concentration needed for the same response) at 5HT4 was 8.3. On 5HT4, `O=C(NCC1CCN(CCCO)CC1O)c1cc(Cl)cc2c1OCCCCO2` (centres unmarked) [Compound 192] came in with a pA2 of 10.1. On the same count and under the same terms, the value for `Cl.O=C(O)CCCN1CCC(CNC(=O)c2cc(Cl)cc3c2OCCCCO3)C(O)C1` (centres unmarked) [Compound 194] was 9.
